Assay results taken from patent publication US8017612B2, “Piperazine compound and use thereof as a HCV polymerase inhibitor” (priority 2006, dated 2011).

Key:
[1] = target: T1, HCV polymerase (NS5B) type 1b (Hepatitis C virus genotype 1b, UniProt P26663); experiment: Assay of enzyme (HCV polymerase) inhibitory activity, type 1b enzyme; type: biochemical, HCV BK strain (type 1b)
T1 construct: a region encoding NS5B (J Virol 1991 March, 65(3), 1105-13, 544 amino acids after deletion of 47 amino acids on the C-terminal); 6xHis (C); made in house; host or cells: Escherichia coli
Outline: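 Rxn: NS5B 1b (BK, ΔC47, His6) 0.5 μg/ml; substrate RNA 5 μg/ml; ATP/GTP/CTP 50 μM, UTP 2 μM + [5,6-3H]UTP; 20 mM Tris pH 7.5, 5 mM MgCl2, 50 mM NaCl, 1 mM EDTA/DTT. 25 °C, 60 min. Stop with TCA/pyrophosphate, filter, scintillation count; IC50 vs. untreated.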

[2] = target: T2, HCV polymerase (NS5B) type 1a (Hepatitis C virus genotype 1a, UniProt P26664); experiment: Assay of enzyme (HCV polymerase) inhibitory activity, type 1a enzyme; type: biochemical, HCV type 1a (cloned from the blood of patients)
T2 construct: made in house; host or cells: Escherichia coli (by the 'similar method' of the 1b enzyme)
Outline: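 NS5B Δ47 C-term His6 (type 1a, 1.5 μg/ml); substrate RNA 5 μg/ml; ATP/GTP/CTP 50 μM, UTP 2 μM + [5,6-3H]UTP; Tris pH 7.5, MgCl2 5 mM; 25° C, 60 min. TCA/pyrophosphate stop, GF/B filter, scintillation. IC50 vs no-compound control.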

[3] = HCV polymerase inhibitory activity (IC50), 1b, type 1b enzyme 0.5 μg/ml, 25° C., 60 min
[4] = HCV polymerase inhibitory activity (IC50), 1a, type 1a enzyme 1.5 μg/ml, 25° C., 60 min
[5] = HCV polymerase inhibitory activity IC50, 1b, type 1b enzyme
[6] = HCV polymerase inhibitory activity IC50, 1a, type 1a enzyme

SMILES | IC50 [1, 3] [nM] | IC50 [2, 4] [nM] | IC50 [1, 5] [nM] | IC50 [2, 6] [nM]
CCC(F)(F)c1ccc(CNC(=O)[C@H]2CN(C(=O)Nc3ccnc(CO)c3)CCN2S(=O)(=O)c2ccc(OC(F)(F)F)cc2)cc1 [Example 511, (R)-4-(4-trifluoromethoxy-benzenesulfonyl)-piperazine-1,3-dicarboxylic acid 3-[4-(1,1-difluoro-propyl)-benzylamide] 1-[(2-hydroxymethyl-pyridin-4-yl)-amide]] | < 100 | < 100 |  | 
CCCc1ccc(S(=O)(=O)N2CCN(c3nc(C)c(C(=O)O)s3)C[C@@H]2C(=O)NCc2ccc(C(C)C)cc2C)cc1 [Example 331, 2-[(R)-3-(4-isopropyl-2-methyl-benzylcarbamoyl)-4-(4-propyl-benzenesulfonyl)-piperazin-1-yl]-4-methyl-thiazole-5-carboxylic acid] | < 100 | < 100 |  | 
CN(C)c1ccc(CNC(=O)C2CN(C(=O)CCNC(=O)OC(C)(C)C)CCN2S(=O)(=O)c2ccc(I)cc2)cc1 (stereo not shown) [Example 87, {3-[3-(4-dimethylamino-benzylcarbamoyl)-4-(4-iodo-benzenesulfonyl)-piperazin-1-yl]-3-oxo-propyl}-carbamic acid tert-butyl ester] | > 1000 | > 1000 |  | 
O=C(O)c1ccc(N2CCN(S(=O)(=O)c3ccc(OC(F)(F)F)cc3)[C@@H](C(=O)NCc3ccc(OC(F)(F)F)cc3)C2)nc1 [Example 774, 6-[(R)-4-(4-trifluoromethoxy-benzenesulfonyl)-3-(4-trifluoromethoxy-benzylcarbamoyl)-piperazin-1-yl]-nicotinic acid] |  |  | < 100 | < 100
COc1ccc(S(=O)(=O)N2CCN(C(C)=O)C[C@@H]2C(=O)NCc2ccc(C(C)C)cc2)cc1C(=O)O [Example 248, 5-[(R)-4-acetyl-2-(4-isopropyl-benzylcarbamoyl)-piperazine-1-sulfonyl]-2-methoxy-benzoic acid] | 100 to 1000 | > 1000 |  | 
CN(C)c1ccc(CNC(=O)C2CN(C(=O)CCN3CCOCC3)CCN2S(=O)(=O)c2ccc(I)cc2)cc1 (stereo not shown) [Example 113, 1-(4-iodo-benzenesulfonyl)-4-(3-morpholin-4-yl-propionyl)-piperazine-2-carboxylic acid 4-dimethylamino-benzylamide] | > 1000 | > 1000 |  | 
CCCCc1ccc(S(=O)(=O)N2CCN(C(C)=O)CC2C(=O)NCc2ccc(C(F)(F)F)cc2)cc1 (stereo not shown) [Example 91, 4-acetyl-1-(4-butyl-benzenesulfonyl)-piperazine-2-carboxylic acid 4-trifluoromethyl-benzylamide] | > 1000 | > 1000 |  | 
O=C(NCc1ccc(OC(F)F)cc1)[C@H]1CN(c2nc3nc(C(F)(F)F)ncc3s2)CCN1S(=O)(=O)c1ccc(OC(F)(F)F)cc1 [Example 1000, (R)-1-(4-trifluoromethoxy-benzenesulfonyl)-4-(5-trifluoromethyl-thiazolo[4,5-d]pyrimidin-2-yl)-piperazine-2-carboxylic acid 4-difluoromethoxy-benzylamide] |  |  | < 100 | < 100
CCCc1ccc(CNC(=O)[C@H]2CN(c3nc4c(C(=O)O)cncc4s3)CCN2S(=O)(=O)c2ccc(CC)cc2)cc1 [Example 1065, 2-[(R)-4-(4-ethyl-benzenesulfonyl)-3-(4-propyl-benzylcarbamoyl)-piperazin-1-yl]-thiazolo[5,4-c]pyridine-7-carboxylic acid] |  |  | < 100 | < 100
CCNC(=O)N1CCc2nc(N3CCN(S(=O)(=O)c4ccc(OC(F)(F)F)cc4)[C@@H](C(=O)NCc4ccc(C(C)(C)C)cc4)C3)sc2C1 [Example 601, 2-[(R)-3-(4-tert-butyl-benzylcarbamoyl)-4-(4-trifluoromethoxy-benzenesulfonyl)-piperazin-1-yl]-6,7-dihydro-4H-thiazolo[5,4-c]pyridine-5-carboxylic acid ethylamide] | < 100 | < 100 |  | 
COc1ccc(S(=O)(=O)N2CCN(C(C)=O)C[C@@H]2C(=O)NCc2ccc(C(C)C)cc2)cc1C(C)C [Example 215, (R)-4-acetyl-1-(3-isopropyl-4-methoxy-benzenesulfonyl)-piperazine-2-carboxylic acid 4-isopropyl-benzylamide] | < 100 | 100 to 1000 |  | 
CC(C)(C)NC(=O)c1cnc(N2CCN(S(=O)(=O)c3ccc(OC(F)(F)F)cc3)[C@@H](C(=O)NCc3ccc(OC(F)(F)F)cc3)C2)cn1 [Example 853, (R)-4-(4-trifluoromethoxy-benzenesulfonyl)-3,4,5,6-tetrahydro-2H-[1,2′]bipyrazinyl-3,5′-dicarboxylic acid 5′-tert-butylamide 3-(4-trifluoromethoxy-benzylamide)] |  |  | 100 to 1000 | > 1000
NC(=O)c1nncc2sc(N3CCN(S(=O)(=O)c4ccc(OC(F)(F)F)cc4)[C@@H](C(=O)NCc4ccc(OC(F)(F)F)cc4)C3)nc12 [Example 915, 2-[(R)-4-(4-trifluoromethoxy-benzenesulfonyl)-3-(4-trifluoromethoxy-benzylcarbamoyl)-piperazin-1-yl]-thiazolo[4,5-d]pyridazine-4-carboxylic acid amide] |  |  | < 100 | < 100
CCC(F)(F)c1ccc(CNC(=O)[C@H]2CN(c3nccc(N)n3)CCN2S(=O)(=O)c2ccc(OC(F)(F)F)cc2)cc1 [Example 585, (R)-4-(4-amino-pyrimidin-2-yl)-1-(4-trifluoromethoxy-benzenesulfonyl)-piperazine-2-carboxylic acid 4-(1,1-difluoro-propyl)-benzylamide] | 100 to 1000 | 100 to 1000 |  | 
CC(C)c1ccc(CNC(=O)[C@H]2CN(C3=NCCS3)CCN2S(=O)(=O)c2ccc(C(F)(F)F)cc2)cc1 [Example 179, (R)-4-(4,5-dihydro-thiazol-2-yl)-1-(4-trifluoromethyl-benzenesulfonyl)-piperazine-2-carboxylic acid 4-isopropyl-benzylamide] | 100 to 1000 | 100 to 1000 |  | 
CCc1ncc2sc(N3CCN(S(=O)(=O)c4ccc(C(F)(F)F)cc4)[C@@H](C(=O)NCc4ccc(OC(F)(F)F)cc4)C3)nc2n1 [Example 950, (R)-4-(5-ethyl-thiazolo[4,5-d]pyrimidin-2-yl)-1-(4-trifluoromethyl-benzenesulfonyl)-piperazine-2-carboxylic acid 4-trifluoromethoxy-benzylamide] |  |  | < 100 | < 100
CC(=O)N1CCN(S(=O)(=O)c2ccc(C(C)C)cc2)C(C(=O)NCc2ccc(N(C)C)cc2)C1 (stereo not shown) [Example 37, 4-acetyl-1-(4-isopropyl-benzenesulfonyl)-piperazine-2-carboxylic acid 4-dimethylamino-benzylamide] | 100 to 1000 | 100 to 1000 |  | 
Cc1nc(N)c2sc(N3CCN(S(=O)(=O)c4ccc(OC(F)(F)F)cc4)[C@@H](C(=O)NCc4ccc(OC(F)(F)F)cc4)C3)nc2n1 [Example 982, (R)-4-(7-amino-5-methyl-thiazolo[4,5-d]pyrimidin-2-yl)-1-(4-trifluoromethoxy-benzenesulfonyl)-piperazine-2-carboxylic acid 4-trifluoromethoxy-benzylamide] |  |  | < 100 | < 100
CC(C)c1ccc(CNC(=O)[C@H]2CN(C(=O)NCCCC(=O)O)CCN2S(=O)(=O)c2ccc(C(F)(F)F)cc2)cc1 [Example 199, 4-{[(R)-3-(4-isopropyl-benzylcarbamoyl)-4-(4-trifluoromethyl-benzenesulfonyl)-piperazine-1-carbonyl]-amino}-butyric acid] | 100 to 1000 | > 1000 |  | 
CC(C)c1ccc(CNC(=O)[C@H]2CN(C(=O)CCCCCC(=O)O)CCN2S(=O)(=O)c2ccc(C(F)(F)F)cc2)cc1 [Example 317, 7-[(R)-3-(4-isopropyl-benzylcarbamoyl)-4-(4-trifluoromethyl-benzenesulfonyl)-piperazin-1-yl]-7-oxo-heptanoic acid] | 100 to 1000 | 100 to 1000 |  | 
CCCc1ccc(S(=O)(=O)N2CCN(c3nc(C(=O)O)c(C)s3)C[C@@H]2C(=O)NCc2ccc(C(C)C)cc2)cc1 [Example 434, 2-[(R)-3-(4-isopropyl-benzylcarbamoyl)-4-(4-propyl-benzenesulfonyl)-piperazin-1-yl]-5-methyl-thiazole-4-carboxylic acid] | < 100 | < 100 |  | 
CCC(F)(F)c1ccc(CNC(=O)[C@H]2CN(c3cnc4cncnc4n3)CCN2S(=O)(=O)c2ccc(OC(F)(F)F)cc2)cc1 [Example 615, (R)-4-pteridin-7-yl-1-(4-trifluoromethoxy-benzenesulfonyl)-piperazine-2-carboxylic acid 4-(1,1-difluoro-propyl)-benzylamide] | < 100 | < 100 |  | 
CCC(F)(F)c1ccc(CNC(=O)[C@H]2CN(C(=O)Cn3nnc(C(C)C)n3)CCN2S(=O)(=O)c2ccc(OC(F)(F)F)cc2)cc1 [Example 542, (R)-4-[2-(5-isopropyl-tetrazol-2-yl)-acetyl]-1-(4-trifluoromethoxy-benzenesulfonyl)-piperazine-2-carboxylic acid 4-(1,1-difluoro-propyl)-benzylamide] | < 100 | < 100 |  | 
